Reference: US20060141022A1, “Soft capsule preparation” (priority 2002, published 2006)

Legend:
[1] = Stability test of NIK-333 in sealed bottle (peroxide value); format: physicochemical; conditions: 25° C., sealed bottle in aluminium bag
Description: NIK-333 was filled in a sealed bottle and the bottle was put into an aluminium bag. This sample was stored at 25° C., and after 0, 1, and 3 months, the peroxide values were measured.

[2] = test system: hepatoma; conditions: one-year oral administration, patients after therapeutic treatment of hepatoma; cited from earlier work

- Peroxide value ([1]; storage period 0 month): 0.4 meq/kg
- Peroxide value ([1]; storage period 1 month): 6.2 meq/kg
- Peroxide value ([1]; storage period 3 months): 14.4 meq/kg
SMILES: CC(C)=CCC/C(C)=C/CC/C(C)=C/C=C/C(C)=C/C(=O)O [NIK-333, (2E,4E,6E,10E )-3,7,11,15-Tetramethyl-2,4,6,10,14-hexadecapentaenoic acid]
- recurrence of hepatoma [2]: suppress recurrence of hepatoma
- safety [2]: high safety
- survival rate of the patients [2]: increased survival rate of the patients
